Measurements taken from patent US20240336602A1 (Katholieke Universiteit Leuven, priority 2020, published 2024).

Molecular target: T1, mouse TRPM3a2 (mTRPM3) ion channel (Mus musculus, UniProt J9SQF3)
T1 construct: expressed in transfected cells; host or cells: flip-in HEK293
Assay: TRPM3 ion channel driven Ca2+ uptake, Fluo-4 AM assay (PS-stimulated, overexpressing flip-in HEK293 cells)
Assay type: cell-based
Conditions: PS (50 μM) stimulated, cpd 001-199
Procedure, shortened: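 Flip-in HEK293 cells overexpressing mTRPM3α2, loaded with Fluo-4 AM, were added to wells with compound plus 50 μM pregnenolone sulfate in Ca2+-containing Krebs buffer and read immediately (ex 485/em 535 nm). Percent inhibition was scaled between PS-plus-vehicle and positive-control-inhibitor signals.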

T1 sequence (J9SQF3 1-1709 isoform J9SQF3-12): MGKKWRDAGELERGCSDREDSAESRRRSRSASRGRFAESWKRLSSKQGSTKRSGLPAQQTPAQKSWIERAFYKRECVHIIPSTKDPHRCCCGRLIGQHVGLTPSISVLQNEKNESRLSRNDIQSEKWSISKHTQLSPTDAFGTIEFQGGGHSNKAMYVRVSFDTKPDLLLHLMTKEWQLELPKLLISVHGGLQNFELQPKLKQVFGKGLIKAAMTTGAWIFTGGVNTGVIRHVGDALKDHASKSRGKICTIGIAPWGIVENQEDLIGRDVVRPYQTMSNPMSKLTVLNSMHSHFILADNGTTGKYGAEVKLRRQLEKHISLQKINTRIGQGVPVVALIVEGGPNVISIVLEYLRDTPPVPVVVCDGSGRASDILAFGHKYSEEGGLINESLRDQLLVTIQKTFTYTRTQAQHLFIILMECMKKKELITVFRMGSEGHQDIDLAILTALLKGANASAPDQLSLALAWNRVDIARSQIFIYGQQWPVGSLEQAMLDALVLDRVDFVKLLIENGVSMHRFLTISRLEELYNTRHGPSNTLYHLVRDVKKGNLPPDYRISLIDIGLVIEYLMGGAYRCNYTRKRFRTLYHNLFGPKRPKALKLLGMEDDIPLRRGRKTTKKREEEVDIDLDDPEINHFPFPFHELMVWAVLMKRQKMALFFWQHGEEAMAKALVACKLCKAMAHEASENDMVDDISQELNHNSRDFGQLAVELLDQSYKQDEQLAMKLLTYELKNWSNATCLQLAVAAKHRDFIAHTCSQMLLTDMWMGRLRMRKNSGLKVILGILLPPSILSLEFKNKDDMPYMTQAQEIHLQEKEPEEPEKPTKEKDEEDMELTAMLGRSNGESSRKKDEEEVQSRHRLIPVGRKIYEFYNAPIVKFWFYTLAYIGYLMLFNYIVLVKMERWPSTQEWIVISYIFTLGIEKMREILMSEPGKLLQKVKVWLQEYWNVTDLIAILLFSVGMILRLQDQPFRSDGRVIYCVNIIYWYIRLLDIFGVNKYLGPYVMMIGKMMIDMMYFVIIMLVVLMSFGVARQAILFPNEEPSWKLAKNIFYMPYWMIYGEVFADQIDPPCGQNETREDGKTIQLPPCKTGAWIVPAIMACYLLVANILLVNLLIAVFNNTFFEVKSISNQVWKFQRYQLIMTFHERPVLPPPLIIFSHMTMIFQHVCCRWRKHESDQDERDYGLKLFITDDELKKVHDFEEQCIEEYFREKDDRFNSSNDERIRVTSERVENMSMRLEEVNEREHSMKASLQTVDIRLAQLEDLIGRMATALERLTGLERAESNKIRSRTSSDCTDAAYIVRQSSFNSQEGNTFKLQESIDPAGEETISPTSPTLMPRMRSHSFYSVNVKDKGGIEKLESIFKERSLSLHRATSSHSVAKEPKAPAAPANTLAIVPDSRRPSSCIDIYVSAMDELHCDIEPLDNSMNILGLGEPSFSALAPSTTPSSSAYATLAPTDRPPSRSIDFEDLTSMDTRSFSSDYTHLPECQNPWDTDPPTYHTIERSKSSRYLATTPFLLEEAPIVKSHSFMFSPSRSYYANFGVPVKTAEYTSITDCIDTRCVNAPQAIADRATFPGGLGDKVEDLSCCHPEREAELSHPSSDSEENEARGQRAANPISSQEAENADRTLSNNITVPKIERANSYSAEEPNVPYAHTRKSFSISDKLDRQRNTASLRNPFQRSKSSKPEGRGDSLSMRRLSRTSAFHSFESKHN

| Compound | IC50 |
| --- | --- |
| Cc1oc2ccc(OCc3ccc(C(F)(F)F)o3)cc2c1C(=O)O [cpd 018, 2-methyl-5-((5-(trifluoromethyl)furan-2-yl)methoxy)benzofuran-3-carboxylic acid] | 1 to 20 µM |
| Cc1oc2ccc(OCc3cnco3)cc2c1C(=O)N[C@H]1CCNC1 [cpd 020, (S)-2-methyl-5-(oxazol-5-ylmethoxy)-N-(pyrrolidin-3-yl)benzofuran-3-carboxamide] | 1 to 20 µM |
| Cc1oc2ccc(OCc3ccn(C)n3)cc2c1C(=O)N[C@H]1CCNC1 [cpd 023, (S)-2-methyl-5-((1-methyl-1H-pyrazol-3-yl)methoxy)-N-(pyrrolidin-3-yl)benzofuran-3-carboxamide] | 1 to 20 µM |
| Cc1oc2ccc(OCc3cnccn3)cc2c1C(=O)NC1CCNC1=O (stereo not shown) [cpd 031, 2-methyl-N-(2-oxopyrrolidin-3-yl)-5-(pyrazin-2-ylmethoxy)benzofuran-3-carboxamide] | 1 to 20 µM |
| Cc1oc2ccc(OCc3ccccn3)cc2c1C(=O)NC1CCN(C)CC1 [cpd 039, 2-methyl-N-(1-methylpiperidin-4-yl)-5-(pyridin-2-ylmethoxy)benzofuran-3-carboxamide] | 1 to 20 µM |
| Cc1oc2ccc(OCc3nccs3)cc2c1C(=O)NC1CCNCC1(F)F (stereo not shown) [cpd 050, N-(3,3-difluoropiperidin-4-yl)-2-methyl-5-(thiazol-2-ylmethoxy)benzofuran-3-carboxamide] | ≤ 1 µM |
| Cc1oc2ccc(OCc3cccc4cnccc34)cc2c1C(=O)NC1CCN(C)CC1 [cpd 060, 5-(isoquinolin-5-ylmethoxy)-2-methyl-N-(1-methylpiperidin-4-yl)benzofuran-3-carboxamide] | 1 to 20 µM |
| COc1ncccc1COc1ccc2oc(C)c(C(=O)NC3CCNCC3(F)F)c2c1 (stereo not shown) [cpd 062, N-(3,3-difluoropiperidin-4-yl)-5-((2-methoxypyridin-3-yl)methoxy)-2-methylbenzofuran-3-carboxamide] | ≤ 1 µM |
| Cc1oc2ccc(OCc3ccc(C(F)(F)F)o3)cc2c1C(=O)NC1CCN(C)CC1 [cpd 069, 2-methyl-N-(1-methylpiperidin-4-yl)-5-((5-(trifluoromethyl)furan-2-yl)methoxy)benzofuran-3-carboxamide] | 1 to 20 µM |
| Cc1cncc(COc2ccc3oc(C)c(C(=O)N[C@H]4CCN(C(=O)OC(C)(C)C)C4)c3c2)c1 [cpd 073, tert-butyl (S)-3-(2-methyl-5-((5-methylpyridin-3-yl)methoxy)benzofuran-3-carboxamido)pyrrolidine-1-carboxylate] | 1 to 20 µM |
| Cc1oc2ccc(OCc3nccs3)cc2c1C(=O)NC1CCN(C(=O)OC(C)(C)C)CC1(F)F (stereo not shown) [cpd 087, tert-butyl 3,3-difluoro-4-(2-methyl-5-(thiazol-2-ylmethoxy)benzofuran-3-carboxamido)piperidine-1-carboxylate] | 1 to 20 µM |
| Cc1cccnc1COc1ccc2oc(C)c(C(=O)NC3CCN(C(=O)OC(C)(C)C)CC3(F)F)c2c1 (stereo not shown) [cpd 088, tert-butyl 3,3-difluoro-4-(2-methyl-5-((3-methylpyridin-2-yl)methoxy)benzofuran-3-carbox-amido)piperidine-1-carboxylate] | 1 to 20 µM |
| COc1ncccc1COc1ccc2oc(C)c(C(=O)NC3CCN(C(=O)OC(C)(C)C)CC3(F)F)c2c1 (stereo not shown) [cpd 089, tert-butyl 3,3-difluoro-4-(5-((2-methoxypyridin-3-yl)methoxy)-2-methylbenzofuran-3-carbox-amido)piperidine-1-carboxylate] | 1 to 20 µM |

Now from value to molecule:

| IC50 | Compound |
| --- | --- |
| 1 to 20 µM | Cc1oc2ccc(OCc3ccncc3)cc2c1C(=O)N[C@H]1CCNC1 [cpd 021, (S)-2-methyl-5-(pyridin-4-ylmethoxy)-N-(pyrrolidin-3-yl)benzofuran-3-carboxamide] |
| 1 to 20 µM | Cc1oc2ccc(OCc3cncnc3)cc2c1C(=O)NC1CCNC1=O (stereo not shown) [cpd 032, 2-methyl-N-(2-oxopyrrolidin-3-yl)-5-(pyrimidin-5-ylmethoxy)benzofuran-3-carboxamide] |
| 1 to 20 µM | Cc1ccncc1COc1ccc2oc(C)c(C(=O)NC3CCOC3)c2c1 (stereo not shown) [cpd 034, 2-methyl-5-((4-methylpyridin-3-yl)methoxy)-N-(tetrahydrofuran-3-yl)benzofuran-3-carboxamide] |
| 1 to 20 µM | Cc1ccncc1COc1ccc2oc(C)c(C(=O)NC3CCNC3=O)c2c1 (stereo not shown) [cpd 037, 2-methyl-5-((4-methylpyridin-3-yl)methoxy)-N-(2-oxopyrrolidin-3-yl)benzofuran-3-carboxamide] |
| 1 to 20 µM | Cc1ccc(COc2ccc3oc(C)c(C(=O)NC4CCNC4=O)c3c2)c(C)n1 (stereo not shown) [cpd 044, 5-((2,6-dimethylpyridin-3-yl)methoxy)-2-methyl-N-(2-oxopyrrolidin-3-yl)benzofuran-3-carboxamide] |
| 1 to 20 µM | Cc1oc2ccc(OC(C)c3ccncc3)cc2c1C(=O)NC1CCN(C)CC1 (stereo not shown) [cpd 045, 2-methyl-N-(1-methylpiperidin-4-yl)-5-(1-(pyridin-4-yl)ethoxy)benzofuran-3-carboxamide] |
| 1 to 20 µM | Cc1ccncc1COc1ccc2oc(C)c(C(=O)NC3(CO)CCOCC3)c2c1 [cpd 052, N-(4-(hydroxymethyl)tetrahydro-2H-pyran-4-yl)-2-methyl-5-((4-methylpyridin-3-yl)methoxy)-benzofuran-3-carboxamide] |
| 1 to 20 µM | Cc1cccnc1COc1ccc2oc(C)c(C(=O)NC3CCNCC3(F)F)c2c1 (stereo not shown) [cpd 053, N-(3,3-difluoropiperidin-4-yl)-2-methyl-5-((3-methylpyridin-2-yl)methoxy)benzofuran-3-carboxamide] |
| 1 to 20 µM | Cc1oc2ccc(OCc3nccc4ccccc34)cc2c1C(=O)NC1CCN(C)CC1 [cpd 059, 5-(isoquinolin-1-ylmethoxy)-2-methyl-N-(1-methylpiperidin-4-yl)benzofuran-3-carboxamide] |
| 1 to 20 µM | Cc1oc2ccc(OCc3cccc(C(F)(F)F)n3)cc2c1C(=O)NC1CCNC1=O (stereo not shown) [cpd 065, 2-methyl-N-(2-oxopyrrolidin-3-yl)-5-((6-(trifluoromethyl)pyridin-2-yl)methoxy)benzofuran-3-carboxamide] |
| 1 to 20 µM | Cc1oc2ccc(OCc3ccc(C(F)(F)F)nc3)cc2c1C(=O)NC1CCNC1=O (stereo not shown) [cpd 066, 2-methyl-N-(2-oxopyrrolidin-3-yl)-5-((6-(trifluoromethyl)pyridin-3-yl)methoxy)benzofuran-3-carboxamide] |
| ≤ 1 µM | Cc1oc2ccc(OCc3cccnc3C(F)(F)F)cc2c1C(=O)NC1CCNCC1(F)F (stereo not shown) [cpd 074, N-(3,3-difluoropiperidin-4-yl)-2-methyl-5-((2-(trifluoromethyl)pyridin-3-yl)methoxy)benzofuran-3-carboxamide] |
| 1 to 20 µM | Cc1oc2ccc(OCc3ncccc3C(F)(F)F)cc2c1C(=O)NC1CCNCC1(F)F (stereo not shown) [cpd 076, N-(3,3-difluoropiperidin-4-yl)-2-methyl-5-((3-(trifluoromethyl)pyridin-2-yl)methoxy)benzofuran-3-carboxamide] |
| 1 to 20 µM | Cc1oc2ccc(OCc3cccc(N(C)C)n3)cc2c1C(=O)NC1CCN(C(=O)OC(C)(C)C)CC1(F)F (stereo not shown) [cpd 078, tert-butyl 4-(5-((6-(dimethylamino)pyridin-2-yl)methoxy)-2-methylbenzofuran-3-carboxamido)-3,3-difluoropiperidine-1-carboxylate] |
| 1 to 20 µM | CCOC(=O)c1c(C)oc2ccc(OCC3CCN(C(=O)OC(C)(C)C)C3)cc12 (stereo not shown) [cpd 079, tert-butyl 3-(((3-(ethoxycarbonyl)-2-methylbenzofuran-5-yl)oxy)methyl)pyrrolidine-1-carboxylate] |
